Reference: patent US10639284B2, “Immunomodulator compounds” (CHEMOCENTRYX, INC., priority 2016, dated 2020)
Read-outs that look alike come from different tables or passages of the source.

Target: human PD-L1 / Human PD-1 (Homo sapiens (Human), UniProt Q9NZQ7)
Experiment: Enzyme-Linked Immunosorbent Assay (ELISA), PD-1/PD-L1 binding
In short: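 Human PD-L1 coated at 1 μg/mL overnight at 4° C; samples diluted 1:5 and incubated with human PD-1 and biotin (0.3 μg/mL) for 1 h at 37° C. Bound PD-1 detected with streptavidin-HRP and TMB (20 min, 37° C), acid-stopped, absorbance at 450 nm.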

[1] = Table 2, plate-coated human PD-L1, biotinylated human PD-1, read-out: ELISA IC50
[2] = Table 3, plate-coated human PD-L1, biotinylated human PD-1, read-out: ELISA IC50

human PD-L1 / Human PD-1, sequence (Q9NZQ7 19-239): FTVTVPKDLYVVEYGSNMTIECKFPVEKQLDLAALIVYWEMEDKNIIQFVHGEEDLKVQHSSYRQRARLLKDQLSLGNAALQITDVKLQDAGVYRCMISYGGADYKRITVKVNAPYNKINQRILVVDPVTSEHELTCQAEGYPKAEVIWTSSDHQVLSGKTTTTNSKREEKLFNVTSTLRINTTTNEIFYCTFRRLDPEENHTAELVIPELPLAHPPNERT

Compound	IC50 [1]	IC50 [2]	also measured
CC(C)[C@H](NCc1cc(Cl)c(O[C@H]2CCc3c(-c4ccccc4F)cccc32)cc1OCc1cncc(C#N)c1)C(=O)O [Example 2.123]	0.1 to 0.5 µM		
COc1ccc(-c2cccc3c2CC[C@@H]3Oc2cc(OCc3cncc(C#N)c3)c(CN[C@@H](CO)C(=O)O)cc2Cl)cc1 [Example 2.014]	0.1 to 0.5 µM		
Cn1nnc(-c2cncc(COc3cc(O[C@H]4CCc5c(-c6ccccc6F)cccc54)c(Cl)cc3CN[C@@H](CO)C(=O)O)c2)n1 [Example 3.101]		0.1 to 0.5 µM	
N#Cc1cncc(COc2cc(O[C@H]3CCc4c(-c5ccccc5F)cccc43)c(Cl)cc2CN2CCC(F)CC2)c1 [Example 2.094]			IC50: 0.1 to 0.5 µM
CC(NCc1cc(Cl)c(O[C@H]2CCc3c(-c4ccccc4F)cccc32)cc1OCc1cncc(C#N)c1)C(=O)NC(CO)C(=O)O (stereo partly drawn) [Example 3.095]		< 0.1 µM	
N#Cc1cncc(COc2cc(O[C@H]3CCc4c(-c5ccccc5F)cccc43)c(Cl)cc2CN[C@H](Cc2ccc(O)cc2)C(=O)O)c1 [Example 3.102]		0.5 to 20 µM	
N#Cc1cncc(COc2cc(O[C@H]3CCc4c(-c5ccccc5F)cccc43)c(Cl)cc2CNC2CCOCC2)c1 [Example 3.072]		< 0.1 µM	
CC(C)(O)CNCc1cc(Cl)c(O[C@H]2CCc3c(-c4ccccc4)cccc32)cc1OCc1cncc(C#N)c1 [Example 1.012]	0.5 to 20 µM		
C[C@@](CO)(NCc1cc(Cl)c(O[C@@H]2CCc3c(-c4ccccc4F)cccc32)cc1OCc1cncc(C#N)c1)C(=O)O [Example 3.119]		< 0.1 µM	
N#Cc1cncc(COc2cc(O[C@H]3CCc4c(-c5ccccc5F)cccc43)c(Cl)cc2CN2CC(O)C2)c1 [Example 2.037]	< 0.1 µM		
N#Cc1cncc(COc2cc(O[C@H]3CCc4c(-c5ccc6c(c5F)OCCO6)cccc43)c(Cl)cc2CN[C@H]2CONC2=O)c1 [Example 3.042]		0.5 to 20 µM	
N#Cc1cc(C#N)cc(COc2cc(O[C@H]3CCc4c(-c5ccccc5F)cccc43)c(Cl)cc2CN[C@@H](CO)C(=O)O)c1 [Example 3.004]		< 0.1 µM	
N#Cc1cncc(COc2cc(O[C@H]3CCc4c(-c5cccc(F)c5)cccc43)c(Cl)cc2CN[C@@H](CO)C(=O)O)c1 [Example 2.010]	< 0.1 µM		
N#Cc1cncc(COc2cc(OC3CCc4c(-c5ccccc5)cccc43)c(Cl)cc2CN[C@@H](CO)C(=O)O)c1 (stereo partly drawn) [Example 1.001]	< 0.1 µM		
N#Cc1cncc(COc2cc(O[C@H]3CCc4c(-c5ccccc5F)cccc43)c(Cl)cc2CN2CC[C@@H](O)C2)c1 [Example 2.019]	< 0.1 µM		
C[C@@H](O)[C@H](NCc1cc(Cl)c(O[C@H]2CCc3c(-c4ccccc4F)cccc32)cc1-c1cncc(C#N)c1)C(=O)O [Example 2.126]	0.1 to 0.5 µM		
O=C(O)[C@H](CO)NCc1cc(Cl)c(OC2CCc3c(-c4ccccc4)cccc32)cc1OCc1cccnc1 (stereo partly drawn) [Example 1.011]	0.5 to 20 µM		
CC1(O)CCN(Cc2cc(Cl)c(O[C@H]3CCc4c(-c5ccccc5F)cccc43)cc2OCc2cncc(C#N)c2)CC1 [Example 2.075]	0.1 to 0.5 µM		
OC1CCN(Cc2cc(Cl)c(O[C@H]3CCc4c(-c5ccccc5F)cccc43)cc2OCc2ccc(C(F)(F)F)nc2)CC1 [Example 2.096]	0.5 to 20 µM		
C[C@@H](O)[C@H](NCc1cc(Cl)c(O[C@H]2CCc3c(-c4ccc5c(c4Cl)OCCO5)cccc32)cc1OCc1cncc(C#N)c1)C(=O)O [Example 2.160]	< 0.1 µM		

Compound	IC50 [1]	IC50 [2]	also measured
COc1cccc(-c2cccc3c2CC[C@@H]3Oc2cc(OCc3cc(C#N)cc(C#N)c3)c(CN[C@@H](CO)C(=O)O)cc2Cl)c1Cl [Example 3.016]		< 0.1 µM	
N#Cc1cncc(COc2cc(O[C@H]3CCc4c(-c5ccc(CO)cc5)cccc43)c(Cl)cc2CN[C@@H](CO)C(=O)O)c1 [Example 3.123]		0.5 to 20 µM	
N#Cc1cncc(COc2cc(O[C@H]3CCc4c(-c5ccc6c(c5F)OCCO6)cccc43)c(Cl)cc2CN[C@@H]2CCC[C@H]2O)c1 [Example 3.033]		< 0.1 µM	
N#Cc1cncc(COc2cc(O[C@H]3CCc4c(-c5ccccc5F)cccc43)c(Cl)cc2CN2CC[C@H](O)[C@H](F)C2)c1 [Example 2.113]	0.5 to 20 µM		
CCOc1cc(O[C@H]2CCc3c(-c4ccccc4F)cccc32)c(Cl)cc1CN[C@@H](CO)C(=O)O [Example 2.036]	< 0.1 µM		
COc1cccc(-c2cccc3c2CC[C@@H]3Oc2cc(OCc3cncc(C#N)c3)c(CN3CC(O)C3)cc2Cl)c1F [Example 2.051]	< 0.1 µM		
N#Cc1cncc(COc2cc(O[C@H]3CCc4c(-c5ccc6c(c5F)OCCO6)cccc43)c(Cl)cc2CN2CC(O)C2)c1 [Example 2.070]	< 0.1 µM		
O=C(O)[C@H](CO)NCc1cc(Cl)c(O[C@H]2CCc3c(-c4ccc5c(c4F)OCCO5)cccc32)cc1OCc1cc(F)cc(F)c1 [Example 3.012]		0.5 to 20 µM	
N#Cc1cncc(COc2cc(O[C@H]3CCc4c(-c5ccccc5F)cccc43)c(Cl)cc2CNC2(C(=O)O)CCC2)c1 [Example 2.145]	< 0.1 µM		
C[C@@H](O)[C@H](NCc1cc(Cl)c(O[C@H]2CCc3c(-c4ccccc4F)cccc32)cc1OCc1cncc(C#N)c1)C(=O)OC(C)(C)C [Example 3.135]		0.5 to 20 µM	
N#Cc1cncc(COc2cc(O[C@@H]3c4cccc(-c5ccccc5F)c4C[C@H]3F)c(Cl)cc2CN[C@@H](CO)C(=O)O)c1 [Example 2.147]	< 0.1 µM		
N#Cc1cncc(COc2cc(O[C@@H]3CCc4c(-c5ccccc5F)cccc43)c(Cl)cc2CN2CCC(O)CC2)c1 [Example 2.136]	0.1 to 0.5 µM		
N#Cc1cncc(COc2cc(O[C@H]3CCc4c(-c5ccccc5F)cccc43)c(Cl)cc2CN[C@@H](Cc2c[nH]cn2)C(=O)O)c1 [Example 3.103]		0.1 to 0.5 µM	
COc1cc(O[C@H]2CCc3c(-c4cccc(OC)c4F)cccc32)c(Cl)cc1CN[C@@H](CO)C(=O)O [Example 2.040]	< 0.1 µM		
N#CCCCCOc1cc(O[C@H]2CCc3c(-c4ccccc4F)cccc32)c(Cl)cc1CN1CCC(O)CC1 [Example 2.090]	0.1 to 0.5 µM		
N#Cc1cncc(COc2cc(O[C@H]3CCc4c(-c5ccccc5F)cccc43)c(Cl)cc2CN[C@@H](CNC(=N)N)C(=O)O)c1 [Example 3.096]		0.1 to 0.5 µM	
N#Cc1cncc(COc2cc(O[C@H]3CCc4c(-c5ccccc5F)cccc43)c(Cl)cc2CN2CC(O)C2)c1 [Example 3.114]		0.5 to 20 µM	
C[C@H](O)[C@H](NCc1cc(Cl)c(O[C@H]2CCc3c(-c4ccccc4F)cccc32)cc1OCc1cncc(C#N)c1)C(=O)O [Example 2.127]	< 0.1 µM		
COC(=O)[C@H](CO)NC(C)c1cc(Cl)c(O[C@H]2CCc3c(-c4ccccc4F)cccc32)cc1OCc1cncc(C#N)c1 (stereo partly drawn) [Example 3.109]		0.5 to 20 µM	
OC1CCN(Cc2cc(Cl)c(O[C@H]3CCc4c(-c5ccccc5F)cccc43)cc2OCc2cccnc2)CC1 [Example 2.116]	0.5 to 20 µM		

Compound	IC50 [1]	IC50 [2]	also measured
CCc1ccccc1-c1cccc2c1CC[C@@H]2Oc1cc(OCc2cncc(C#N)c2)c(CN[C@@H](CO)C(=O)O)cc1Cl [Example 2.035]	0.1 to 0.5 µM		
CCOc1cc(O[C@H]2CCc3c(-c4cccc(OC)c4F)cccc32)c(Cl)cc1CN[C@@H](CO)C(=O)O [Example 2.048]	< 0.1 µM		
N#Cc1cncc(COc2cc(O[C@H]3CCc4c(Br)cccc43)c(Cl)cc2CN[C@@H](CO)C(=O)O)c1 [Example 3.028]		0.5 to 20 µM	
N#Cc1cncc(COc2cc(O[C@H]3CCc4c(-c5ccccc5F)cccc43)c(Cl)cc2CN[C@H](C(=O)O)c2ccccc2)c1 [Example 2.178]	0.1 to 0.5 µM		
Cc1cc2cc(CNCc3cc(Cl)c(O[C@H]4CCc5c(-c6ccccc6F)cccc54)cc3OCc3cncc(C#N)c3)ccc2[nH]1 [Example 3.087]		0.5 to 20 µM	
CC(C)c1cccc(-c2cccc3c2CC[C@@H]3Oc2cc(OCc3cncc(C#N)c3)c(CN[C@@H](CO)C(=O)O)cc2Cl)c1 [Example 2.033]	0.5 to 20 µM		
N#Cc1cncc(COc2cc(O[C@H]3CCc4c(-c5ccccc5F)cccc43)c(Cl)cc2CNCc2cccnn2)c1 [Example 3.084]		< 0.1 µM	
N#Cc1cncc(COc2cc(O[C@H]3CCc4c(-c5ccccc5F)cccc43)c(Cl)cc2CNCC(=O)N[C@@H](CO)C(=O)O)c1 [Example 3.050]		0.1 to 0.5 µM	
COc1cccc(-c2cccc3c2CC[C@@H]3Oc2cc(OCc3cncc(C#N)c3)c(CN[C@@H](CO)C(=O)O)cc2Cl)c1Cl [Example 2.043]	< 0.1 µM		
Cc1cccc(-c2cccc3c2CC[C@@H]3Oc2cc(OCc3cncc(C#N)c3)c(CN[C@@H](CO)C(=O)O)cc2Cl)c1 [Example 2.012]	0.5 to 20 µM		
C[C@@H](O)[C@H](NC(=O)CNCc1cc(Cl)c(O[C@H]2CCc3c(-c4ccccc4F)cccc32)cc1OCc1cncc(C#N)c1)C(=O)O [Example 2.135]	0.1 to 0.5 µM		
OC1CCN(Cc2cc(Cl)c(O[C@H]3CCc4c(-c5ccccc5F)cccc43)cc2OCc2cnc(N3CCC(O)CC3)nc2)CC1 [Example 2.109]	0.5 to 20 µM		
CCOc1cc(O[C@H]2CCc3c(-c4ccccc4F)cccc32)c(Cl)cc1CN[C@@H](C)C(=O)O [Example 2.154]	0.1 to 0.5 µM		
COC(=O)[C@H](CO)NCc1cc(Cl)c(O[C@H]2CCc3c(-c4ccccc4F)cccc32)cc1OCc1cncc(C#N)c1 [Example 2.140]	< 0.1 µM		
N#Cc1cncc(COc2cc(O[C@H]3CCc4c(-c5ccccc5F)cccc43)c(Cl)cc2CNCC(=O)NO)c1 [Example 2.151]	0.5 to 20 µM		
CC(N[C@@H](CO)C(=O)O)c1cc(Cl)c(O[C@H]2CCc3c(C4=CCCC4)cccc32)cc1OCc1cncc(C#N)c1 (stereo partly drawn) [Example 3.112]		0.1 to 0.5 µM	
N#Cc1cncc(COc2cc(O[C@H]3CCc4c(-c5ccccc5F)cccc43)c(Cl)cc2CN[C@@H](CO)C(=O)O)c1 [Example 3.024]		< 0.1 µM	
COc1ccc(F)c(-c2cccc3c2CC[C@@H]3Oc2cc(OCc3cncc(C#N)c3)c(CN[C@@H](CO)C(=O)O)cc2Cl)c1 [Example 2.045]	< 0.1 µM		
N#Cc1cncc(COc2cc(O[C@H]3CCc4c(-c5ccccc5O)cccc43)c(Cl)cc2CN[C@@H](CO)C(=O)O)c1 [Example 3.079]		0.1 to 0.5 µM	
COc1ccc(F)c(-c2cccc3c2CC[C@@H]3Oc2cc(OCc3cncc(C#N)c3)c(CN3CCC(O)CC3)cc2Cl)c1 [Example 2.079]	0.1 to 0.5 µM		
